Results taken from the supplement of paper PMC7661543.
± gives the standard deviation of the averaged measurements.

Experiments:
Test in all cases: relative cell number vs DMSO control (72 h) (% of DMSO); higher = less growth inhibition (more cells)
Conditions in all cases: sgRNA knockout: sgNT
BT-20 = system: BT-20
Procedure: (§1)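 QMAP-Seq: a pool of 5 breast cancer cell lines (ZR-75-1, SKBR3, HCC-38, MDA-MB-231, BT-20), each carrying 12 doxycycline-inducible Cas9 sgRNA perturbations (11 knockouts plus non-targeting sgNT), was treated with compounds for 72 h at four 10-fold doses (10 nM-10 uM or 1 nM-1 uM range). Barcodes were amplified and sequenced, and cell number was interpolated from 293T spike-in standard curves. The result is expressed as % of the median of DMSO wells. Two biological replicates.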

HCC-38 = system: HCC-38
Procedure: as §1

MDA-MB-231 = system: MDA-MB-231
Procedure: as §1

SKBR3 = system: SKBR3
Procedure: as §1

ZR-75-1 = system: ZR-75-1
Procedure: as §1

Row | Compound | relative cell number (BT-20; 1 nM) | relative cell number (BT-20; 10 nM) | relative cell number (BT-20; 100 nM) | relative cell number (BT-20; 1000 nM) | relative cell number (HCC-38; 1 nM) | relative cell number (HCC-38; 10 nM) | relative cell number (HCC-38; 100 nM) | relative cell number (HCC-38; 1000 nM) | relative cell number (MDA-MB-231; 1 nM) | relative cell number (MDA-MB-231; 10 nM) | relative cell number (MDA-MB-231; 100 nM) | relative cell number (MDA-MB-231; 1000 nM) | relative cell number (SKBR3; 1 nM) | relative cell number (SKBR3; 10 nM) | relative cell number (SKBR3; 100 nM) | relative cell number (SKBR3; 1000 nM) | relative cell number (ZR-75-1; 1 nM) | relative cell number (ZR-75-1; 10 nM) | relative cell number (ZR-75-1; 100 nM) | relative cell number (ZR-75-1; 1000 nM) | relative cell number (BT-20; 10000 nM) | relative cell number (HCC-38; 10000 nM) | relative cell number (MDA-MB-231; 10000 nM) | relative cell number (SKBR3; 10000 nM) | relative cell number (ZR-75-1; 10000 nM)
1 | CC(C)C[C@H](NC(=O)[C@H](Cc1ccccc1)NC(=O)c1cnccn1)B(O)O [Bortezomib] | 71.71 ± 0.27 | 74.6 ± 13 | 24.7 ± 9.2 | 16.7 ± 2.3 | 91.8 ± 5.8 | 36.8 ± 2.4 | 4.58 ± 0.053 | 7.2 ± 1.2 | 86.7 ± 9.3 | 65.2 ± 19 | 6.68 ± 5 | 13.2 ± 6.6 | 94.4 ± 13 | 34.3 ± 8 | 14.2 ± 4.1 | 9.59 ± 4 | 72 ± 20 | 80 ± 17 | 17.2 ± 3.5 | 13.4 ± 2.8 |  |  |  |  | 
2 | C[C@H]1CCC/C=C/[C@@H]2C[C@H](O)C[C@H]2[C@H](O)/C=C/C(=O)O1 [BrefeldinA] |  | 84.9 ± 25 | 25.6 ± 6.2 | 31.1 ± 3.5 |  | 92.1 ± 16 | 54.8 ± 7.7 | 35.3 ± 11 |  | 108 ± 22 | 14.1 ± 7.9 | 7.55 ± 2.6 |  | 89.9 ± 43 | 17.7 ± 11 | 5.96 ± 2.5 |  | 86.8 ± 14 | 18.7 ± 2.6 | 8.03 ± 3.4 | 31.5 ± 9.4 | 23.6 ± 7.5 | 9.31 ± 2.6 | 6.07 ± 0.93 | 5.82 ± 3.4
3 | Cc1cc2c(F)c(Oc3ncnn4cc(OC[C@@H](C)O)c(C)c34)ccc2[nH]1 [Brivanib] |  | 119 ± 35 | 78.5 ± 1.6 | 109 ± 18 |  | 96.9 ± 6.4 | 84.3 ± 9.9 | 96.7 ± 2.2 |  | 107 ± 31 | 106 ± 25 | 122 ± 9.6 |  | 112 ± 6.1 | 61.5 ± 12 | 82.4 ± 11 |  | 86.5 ± 18 | 66.1 ± 24 | 111 ± 19 | 93.9 ± 4 | 84.119 ± 0.073 | 58.7 ± 9.5 | 60.9 ± 28 | 53.5 ± 20
4 | CC[C@H](Nc1ncnc2[nH]cnc12)c1nc2cccc(F)c2c(=O)n1-c1ccccc1 [CAL101] |  | 96.9 ± 17 | 97.88 ± 0.52 | 88.6 ± 25 |  | 87.5 ± 13 | 96.1 ± 14 | 86.7 ± 14 |  | 122 ± 4.8 | 68.4 ± 19 | 118 ± 38 |  | 77.4 ± 19 | 91.3 ± 18 | 87.3 ± 49 |  | 76.6 ± 14 | 95.6 ± 7.7 | 84.5 ± 3.2 | 88.8 ± 26 | 83.8 ± 32 | 110 ± 9.4 | 84.2 ± 3.7 | 72 ± 15
5 | COc1cc2nccc(Oc3ccc(NC(=O)C4(C(=O)Nc5ccc(F)cc5)CC4)cc3)c2cc1OC [Cabozantinib] |  | 110 ± 3.4 | 98.3 ± 13 | 94.5 ± 5 |  | 87.7 ± 22 | 104 ± 2.3 | 97.8 ± 2.8 |  | 103 ± 8.6 | 88.2 ± 3.7 | 100 ± 3.8 |  | 128 ± 10 | 130 ± 11 | 82.9 ± 26 |  | 132 ± 14 | 102 ± 2.8 | 111 ± 40 | 49.8 ± 18 | 61.9 ± 9.7 | 36.7 ± 24 | 25.8 ± 17 | 28.3 ± 19
6 | C=CC(=O)Nc1cc2c(Nc3ccc(F)c(Cl)c3)ncnc2cc1OCCCN1CCOCC1 [Canertinib] |  | 69.3 ± 4.2 | 59.3 ± 7.5 | 75.3 ± 11 |  | 97 ± 19 | 110 ± 9.9 | 87 ± 12 |  | 87.7 ± 26 | 60.8 ± 6.4 | 78.7 ± 21 |  | 81.6 ± 12 | 56.6 ± 18 | 39.1 ± 14 |  | 117 ± 23 | 113 ± 22 | 63.6 ± 13 | 41.5 ± 21 | 9.97 ± 5 | 9.74 ± 5.8 | 16.3 ± 0.86 | 41.2 ± 9.9
7 | CC(C)C[C@H](NC(=O)[C@H](CCc1ccccc1)NC(=O)CN1CCOCC1)C(=O)N[C@@H](Cc1ccccc1)C(=O)N[C@@H](CC(C)C)C(=O)[C@@]1(C)CO1 [Carfilzomib] | 80.9 ± 18 | 80.32 ± 0.3 | 21.4 ± 4.5 | 14.6 ± 1.8 | 76.3 ± 6.3 | 31.4 ± 4.7 | 8.48 ± 4 | 4.65 ± 0.23 | 83.2 ± 3.2 | 91 ± 32 | 37.8 ± 22 | 18.7 ± 5.8 | 58.5 ± 9.1 | 33.5 ± 8.4 | 11.2 ± 8.9 | 7.64 ± 5.5 | 73.3 ± 12 | 89.9 ± 9.1 | 22.8 ± 13 | 7.73 ± 3.8 |  |  |  |  | 
8 | COc1cc2c(Oc3ccc4[nH]c(C)cc4c3F)ncnc2cc1OCCCN1CCCC1 [Cediranib] |  | 104 ± 8.7 | 100 ± 29 | 104 ± 9 |  | 108 ± 8.3 | 100 ± 1.8 | 59.3 ± 0.64 |  | 91.3 ± 3.8 | 114 ± 20 | 104 ± 33 |  | 103 ± 25 | 85.8 ± 14 | 113 ± 29 |  | 113 ± 5.5 | 87.5 ± 7.5 | 86.3 ± 5.5 | 27.9 ± 8.5 | 9.73 ± 0.54 | 15.9 ± 2.8 | 11.1 ± 1.2 | 10.9 ± 2.5
9 | O=C(O)CCCc1ccc(N(CCCl)CCCl)cc1 [Chlorambucil] |  | 100 ± 3 | 72.6 ± 16 | 93.2 ± 18 |  | 90.4 ± 5.5 | 98.6 ± 12 | 96 ± 3.8 |  | 99.2 ± 7.3 | 94.9 ± 9.4 | 91 ± 18 |  | 107 ± 1.5 | 74.5 ± 4.3 | 82.17 ± 0.55 |  | 81.3 ± 21 | 83.3 ± 26 | 78 ± 34 | 81.2 ± 22 | 67.5 ± 2.6 | 63.5 ± 24 | 64.2 ± 2.1 | 86.17 ± 0.75
10 | Cc1cc(C2CCCCC2)n(O)c(=O)c1 [Ciclopirox] |  | 96.4 ± 11 | 95.2 ± 19 | 65.7 ± 2.8 |  | 88.3 ± 8.2 | 93.6 ± 11 | 77.4 ± 3.9 |  | 112 ± 16 | 125 ± 41 | 49.1 ± 5.4 |  | 105 ± 24 | 83.3 ± 22 | 86.9 ± 17 |  | 112 ± 34 | 93.9 ± 19 | 41.4 ± 1.6 | 25.2 ± 7.7 | 13.6 ± 2.9 | 20.4 ± 5.6 | 17.3 ± 9.5 | 18.3 ± 1.6
11 | CN/C(=N\CCSCc1nc[nH]c1C)NC#N [Cimetidine] |  | 111 ± 2.3 | 108 ± 20 | 100 ± 8.2 |  | 101 ± 16 | 97.2 ± 9.8 | 88.8 ± 11 |  | 103 ± 22 | 106 ± 46 | 95.5 ± 9.1 |  | 78.8 ± 35 | 141 ± 62 | 107.1 ± 0.53 |  | 103 ± 4.7 | 121 ± 47 | 101 ± 17 | 106 ± 15 | 101 ± 7.5 | 92.2 ± 9.2 | 110 ± 13 | 133 ± 39
12 | N.N.[Cl][Pt][Cl] [Cisplatin] |  | 100 ± 7.4 | 80.4 ± 4.7 | 111 ± 5.1 |  | 114 ± 20 | 79.6 ± 12 | 115 ± 13 |  | 95 ± 3.3 | 87.8 ± 8.9 | 99.8 ± 51 |  | 97.5 ± 2.7 | 84.6 ± 5.9 | 81.5 ± 8.8 |  | 89.8 ± 18 | 88.2 ± 45 | 89.7 ± 35 | 89 ± 2.7 | 93.4 ± 8.6 | 116 ± 20 | 110 ± 3.5 | 74.5 ± 27
